The values that follow come from patent publication US9303009B2, “Migrastatins and uses thereof” (Sloan-Kettering Institute for Cancer Research, priority 2011, dated 2016).

Series [1] in a line: water solubility. In kind it is physicochemical. The settings on record: water with 5% methanol, aqueous with cosolvent or surfactant or cyclodextrin; in the presence of 5% methanol.
In series [2] the test system is MDA231BrM2a cells. Kind of series: ex-vivo intra-brain migration assay on brain slices. It counts as cell-based, human. The settings on record: 1 μM or 10 μM; 3 days. The source says:
After extravasation through the BBB, cancer cells adhere to and migrate on the surface of brain capillaries. Prior to the present disclosure, the permeability of the BBB to cME was unknown. To investigate the ability of cME to inhibit cancer cell migration over capillaries once the cells have infiltrated the brain, we used an ex-vivo intra-brain migration assay. Brain slices from untreated mice were placed in organotypic cultures. Each slice was placed on an inertporous membrane over cell culture medium. MDA231BrM2a cells (3×10^4 cells) were plated on top of the brain slices (FIG. 2, top). After 3 days, the cancer cells had infiltrated the brain tissue mass, migrated towards capillaries (Col. IV in FIG. 2) and migrated on the capillary network of the tissue slice (FIG. 2, bottom). […] In the presence of cME, the cancer cells remained round and on the surface of the brain slice, without migrating towards and over the vascular network (FIG. 2, bottom right).

Take `CO[C@H]1/C=C/CCCCCOC/C(C)=C\[C@@H](C)[C@@H]1OCC(=O)O` [CME, Carboxymethyl migraether]: the solubility in series [1] lay in the range of 200 to 300 µg/mL. Further, the “migration of cancer cells towards and over the capillary network of the brain slice” value in series [2] is recorded as “strongly inhibited”.
